One series can be described thus: physchem. The note with it: thermodynamic from solid, room temperature.
The next series has as its target T1, human KDR (Homo sapiens, UniProt P35968).
T1 construct: cloning the cytoplasmic domain of the KDR kinase as an in frame fusion at the carboxy terminus of the GST gene; made in house; host or cells: Spodoptera frugiperda (Sf21) insect cells, baculovirus vector pAcG2T
Kind of series: VEGF Receptor Kinase Assay. Format: biochemical.

In brackets after ≈: the same amount, converted by molar mass.

T1 sequence (P35968 786-1356 limits assumed): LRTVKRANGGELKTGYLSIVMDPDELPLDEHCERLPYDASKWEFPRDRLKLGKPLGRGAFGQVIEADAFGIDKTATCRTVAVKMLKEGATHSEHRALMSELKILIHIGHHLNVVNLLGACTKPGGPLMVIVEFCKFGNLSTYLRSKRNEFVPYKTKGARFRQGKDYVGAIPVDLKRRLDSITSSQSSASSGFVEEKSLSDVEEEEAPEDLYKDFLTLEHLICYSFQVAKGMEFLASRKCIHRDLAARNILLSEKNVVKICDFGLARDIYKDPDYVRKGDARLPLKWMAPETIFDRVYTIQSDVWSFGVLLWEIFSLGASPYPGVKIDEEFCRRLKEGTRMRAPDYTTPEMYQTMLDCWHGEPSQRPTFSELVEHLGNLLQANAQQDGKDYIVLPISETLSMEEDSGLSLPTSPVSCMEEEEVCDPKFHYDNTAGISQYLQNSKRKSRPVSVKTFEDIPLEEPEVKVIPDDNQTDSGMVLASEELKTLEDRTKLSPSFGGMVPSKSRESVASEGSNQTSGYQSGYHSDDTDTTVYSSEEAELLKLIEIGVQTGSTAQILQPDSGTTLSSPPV
Procedure for human KDR: VEGF receptor kinase activity is measured by incorporation of radio-labeled phosphate into polyglutamic acid, tyrosine, 4:1 (pEY) substrate. The phosphorylated pEY product is trapped onto a filter membrane and the incorporation of radio-labeled phosphate quantified by scintillation counting.
The intracellular tyrosine kinase domains of human KDR (Terman, B. I. et al. Oncogene (1991) vol. 6, pp. 1677-1683.) and Flt-1 (Shibuya, M. et al. Oncogene (1990) vol. 5, pp. 519-524) were cloned as glutathione S-transferase (GST) gene fusion proteins. This was accomplished by cloning the cytoplasmic domain of the KDR kinase as an in frame fusion at the carboxy terminus of the GST gene. Soluble recombinant GST-kinase domain fusion proteins were expressed in Spodoptera frugiperda (Sf21) insect cells (Invitrogen) using a baculovirus expression vector (pAcG2T, Pharmingen).
1) Add 5 μl of inhibitor or control to the assay in 50% DMSO.
2) Add 35 μl of reaction mix containing 5 μl of 10× reaction buffer, 5 μl 25 mM ATP/10 μCi [^33P]ATP (Amersham), and 5 μl 10× substrate.
3) Start the reaction by the addition of 10 μl of KDR (25 nM) in enzyme dilution buffer.
4) Mix and incubate at room temperature for 15 minutes.
5) Stop by the addition of 50 μl stop solution.
6) Incubate for 15 minutes at 4° C.
7) Transfer a 90 μl aliquot to filter plate.
8) Aspirate and wash 3 times with wash solution. […]

In the case of `CNC(=O)N1CCN(Cc2ccnc(Nc3ncc(C#N)s3)c2)CC1` [Form C, 4-[2-(5-cyano-thiazol-2-ylamino)-pyridin-4-ylmethyl]-piperazine-1-carboxylic acid methylamide], the solubility – broadly, the concentration that dissolves in the medium under given conditions – in “physchem” (50% aqueous IPA, aqueous with cosolvent or surfactant or cyclodextrin) worked out at 12.3 mg/mL (≈ 34.4 mM); in the series “physchem” (50% aqueous ethanol, aqueous with cosolvent or surfactant or cyclodextrin) it was 10.4 mg/mL (≈ 29.1 mM); in the series “physchem” (water, pH 2.9, water) it was 6 mg/mL (≈ 16.8 mM).
Regarding `CNC(=O)N1CCN(Cc2ccnc(Nc3ncc(C#N)s3)c2)CC1` [Compound 4-4, 4-[2-(5-cyano-thiazol-2-ylamino)-pyridin-4-ylmethyl]-piperazine-1-carboxylic acid methylamide], the kinase inhibitory activity result on human KDR is “inhibits the kinase KDR”.

Values taken from US20040023981A1, “Salt forms with tyrosine kinase activity” (priority 2002, published 2004).
